Data set [1] deals with T1, Growth hormone secretagogue receptor type 1 (Homo sapiens, UniProt Q92847). The data set is described as follows: Agonist activity at GSHR by FLIPR assay. The format is functional.
In data set [2] the target is T1, Growth hormone secretagogue receptor type 1. The experiment in a line: Intrinsic activity at GSHR relative to human ghrelin. The format is functional.
The target in data set [3] is 5-hydroxytryptamine receptor 1B (Homo sapiens, UniProt P28222). The data set is described as follows: Binding affinity at 5HT1B receptor.
5-hydroxytryptamine receptor 1B, sequence (P28222 whole entry): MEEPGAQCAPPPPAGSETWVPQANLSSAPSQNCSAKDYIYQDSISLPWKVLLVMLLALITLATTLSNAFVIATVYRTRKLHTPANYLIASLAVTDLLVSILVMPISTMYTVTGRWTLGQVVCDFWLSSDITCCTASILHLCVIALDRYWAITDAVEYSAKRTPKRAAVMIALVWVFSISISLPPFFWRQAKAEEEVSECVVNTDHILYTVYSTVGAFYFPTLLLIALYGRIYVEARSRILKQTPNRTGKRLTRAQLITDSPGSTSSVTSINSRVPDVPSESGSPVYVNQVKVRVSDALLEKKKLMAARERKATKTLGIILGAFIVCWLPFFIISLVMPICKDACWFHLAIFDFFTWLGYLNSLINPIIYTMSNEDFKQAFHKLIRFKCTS
A short description of data set [4]: Distribution coefficient, log D at pH 7.4. The format is physicochemical. As to conditions: octanol/water.
Data set [5] can be described thus: Volume of distribution in rat at 1 mg/kg, iv. The format is ADME, organism-based. More on the design: dose 1 mg/kg, route intravenous. As to conditions: in vivo, read-out: Vdss.
The target of data set [6] is Motilin receptor (Homo sapiens) (UniProt O43193). The data set is described as follows: Activity at motilin GPR38 receptor.
Motilin receptor (Homo sapiens), sequence (O43193 whole entry): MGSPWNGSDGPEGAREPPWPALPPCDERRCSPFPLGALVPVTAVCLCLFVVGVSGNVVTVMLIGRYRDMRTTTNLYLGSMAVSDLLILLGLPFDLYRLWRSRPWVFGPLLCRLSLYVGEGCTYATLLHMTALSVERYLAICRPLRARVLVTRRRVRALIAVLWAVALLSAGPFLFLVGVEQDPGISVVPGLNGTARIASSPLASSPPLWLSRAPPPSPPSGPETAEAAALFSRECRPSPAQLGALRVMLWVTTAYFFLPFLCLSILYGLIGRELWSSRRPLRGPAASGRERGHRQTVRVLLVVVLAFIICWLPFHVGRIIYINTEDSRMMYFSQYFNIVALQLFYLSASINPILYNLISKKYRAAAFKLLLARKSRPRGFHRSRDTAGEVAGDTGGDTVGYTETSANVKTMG
The nature of data set [7]: Clearance in rat blood at 1 mg/kg, iv. The class given is ADME, organism-based. As to conditions: in vivo. Set-up: dose 1 mg/kg, route intravenous.
Data set [8] relates to Liver microsomes. The experiment in a line: Metabolic stability in human liver microsomes. The format is ADME, Microsome. A general note: Liver microsomes are a subcellular fraction often used to study metabolism.
Data set [9] concerns Rattus norvegicus. The experiment in a line: Increase in gastric emptying in sc dosed rat. The class given is functional. To be noted: Stomach.
Data set [10] in a line: Half life in rat at 1 mg/kg, iv. Set-up: dose 1 mg/kg, route intravenous. To be noted: in vivo. The class given is ADME, organism-based.
In data set [11] the test system is Liver microsomes. The data set is described as follows: Metabolic stability in rat liver microsomes. The format is ADME, Microsome.
A short description of data set [12]: Aqueous solubility at pH 7.4. The format is physicochemical.
The nature of data set [13]: Cmax in rat at 1 mg/kg, iv. The class given is ADME, organism-based. More on the design: dose 1 mg/kg, route intravenous. To be noted: in vivo.

pEC50, pKi: −log10 of the molar value. ≈ marks a conversion by molar mass, not a printed value. Calls of active or inactive are those of the source.

T1 sequence (Q92847 whole entry): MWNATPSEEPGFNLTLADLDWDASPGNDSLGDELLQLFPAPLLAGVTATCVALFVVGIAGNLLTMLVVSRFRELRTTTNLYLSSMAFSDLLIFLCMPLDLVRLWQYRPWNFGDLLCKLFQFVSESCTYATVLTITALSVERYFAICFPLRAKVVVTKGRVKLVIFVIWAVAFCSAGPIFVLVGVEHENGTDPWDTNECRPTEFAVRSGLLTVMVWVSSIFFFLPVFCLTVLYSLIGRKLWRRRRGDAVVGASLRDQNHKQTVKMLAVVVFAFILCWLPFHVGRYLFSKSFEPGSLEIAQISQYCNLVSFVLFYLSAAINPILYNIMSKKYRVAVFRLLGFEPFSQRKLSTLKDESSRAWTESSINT

In turn, `COc1cc2c(cc1N1C[C@@H](C)N[C@@H](C)C1)N(S(=O)(=O)Cc1cccc(I)c1)CC2` showed a negative-log EC50 (pEC50) in data set [1] of 7.50. Also, in [2], the Intrinsic activity was 0.8.

The compound `COc1cc2c(cc1N1CCN[C@@H](C)C1)N(S(=O)(=O)c1ccc(-c3ccccn3)s1)CC2` gave a negative logarithm of the EC50 (pEC50) in data set [1] of 8.50. In data set [2], this compound displayed an Intrinsic activity of 1.

`COc1cc2c(cc1N1CCNCC1)N(S(=O)(=O)c1ccc(-c3ccccn3)s1)CC2`: the pEC50 in [1] was 7.20. In data set [2], the Intrinsic activity was found to be 0.8.

Consider `COc1cc2c(cc1N1C[C@@H](C)NC(C)(C)C1)N(S(=O)(=O)c1ccc(-c3ccccn3)s1)CC2`, for which the pEC50 in data set [1] was 8.00. This compound also gave an Intrinsic activity in [2] of 0.8.

`COc1cc2c(cc1N1C[C@@H](C)N[C@@H](C)C1)N(S(=O)(=O)CCc1ccccc1Cl)CC2` gave a negative-log EC50 (pEC50) in data set [1] of 8.30. The Intrinsic activity in data set [2] turned out to be 0.9.

In the case of `COc1cc2c(cc1N1C[C@@H](C)N(C)[C@@H](C)C1)N(S(=O)(=O)c1ccc3ccccc3c1)CC2`, the negative-log EC50 (pEC50) in data set [1] is 7.40. The Intrinsic activity in [2] was determined as 0.8.

In turn, `COc1cc2c(cc1N1C[C@@H](C)N[C@@H](C)C1)N(S(=O)(=O)c1ccc3ccccc3c1)CC2` gave a negative-log EC50 (pEC50) in data set [1] of 9.30. In [2], the Intrinsic activity is 1.

Turning to `COc1cc2c(cc1N1C[C@@H](C)N(C)[C@@H](C)C1)N(S(=O)(=O)c1cccc(Br)c1)CC2`, the pEC50 in data set [1] was 6.90. Also, the Intrinsic activity in [2] came to 0.7. The compound further had a negative logarithm of the Ki (pKi) in [3] of 5.70.

In [1], `COc1cc2c(cc1N1C[C@@H](C)N[C@@H](C)C1)N(S(=O)(=O)c1cccc(-c3ccccn3)c1)CC2` gave a pEC50 of 7.70. The compound also gave an Intrinsic activity in [2] of 0.9.

Turning to `COc1cc2c(cc1N1CCNC(C)(C)C1)N(S(=O)(=O)c1ccc(-c3ccccn3)s1)CC2`, the negative-log EC50 (pEC50) in data set [1] is 7.80. In [2], this compound had an Intrinsic activity of 0.9.

In data set [1], `CCOc1ccc(CC(=O)N2CCc3cc(OC)c(N4C[C@@H](C)N(C)[C@@H](C)C4)cc32)cc1Cl` showed a pEC50 of 6.80. In addition, the Intrinsic activity in [2] stood at 0.7. In data set [3], this compound had a negative logarithm of the Ki (pKi) of 7.90.

As to `COc1cc2c(cc1N1C[C@@H](C)N[C@@H](C)C1)N(S(=O)(=O)c1ccc(-c3ccccn3)s1)CC2`, the pEC50 in [1] was 9.80. For the same compound, the logD in data set [4] is 1.8. This compound yielded an Intrinsic activity in data set [2] of 0.9. Moreover, in data set [5], the Vd was 8.8 L/kg. Also, the result in [6] was inactive. Besides, the Clearance blood in data set [7] came to 64 mL/min/kg. The values for the Stability in data set [8] and in data set [11] were 4.5 mL/min/g and 2.6 mL/min/g, respectively. Moreover, the 50% effect level in data set [9] (ED50) was put at a dose of 0.1 mg/kg. The half-life in data set [10] was 138 min. For the same compound, in data set [12], the solubility was 168 µg/mL (≈ 347 µM). The compound further gave a Cmax in [13] of 250 nM.

In the case of `COc1cc2c(cc1N1C[C@@H](C)N[C@@H](C)C1)N(S(=O)(=O)c1ccc(-c3ccon3)s1)CC2`, in data set [1], the pEC50 was 8.60. In addition, the Intrinsic activity in data set [2] was found to be 0.9.

In the case of `COc1cc2c(cc1N1CCN[C@H](C)C1)N(S(=O)(=O)c1ccc(-c3ccccn3)s1)CC2`, in data set [1], the pEC50 was 8.40. Moreover, the Intrinsic activity in [2] was determined as 1.

On to `COc1cc2c(cc1N1C[C@@H](C)N[C@@H](C)C1)N(S(=O)(=O)c1ccc(-c3ccccn3)cc1)CC2`, for which, in data set [1], the pEC50 is 9.70. In addition, in data set [2], the Intrinsic activity worked out at 1.1.

`COc1cc2c(cc1N1C[C@H](C)NC(C)(C)C1)N(S(=O)(=O)c1ccc(-c3ccccn3)s1)CC2` showed a pEC50 in data set [1] of 9.10. The same compound gave an Intrinsic activity in [2] of 1.

The pEC50 is the negative decadic logarithm of the EC50, by convention in mol/L. A higher pEC50 goes with a small EC50. As a reminder, the pKi is the Ki on a negative log10 scale, so that one unit is a factor of ten. As a reminder, the logD is the decadic logarithm of the distribution of all forms, ionised or not, between an organic phase and buffer at a given pH. Lower therefore signals a more hydrophilic compound. Usually ED50 stands for the midpoint of the dose-response relation. What is called half-life is the time needed for the level to fall by half in the phase considered. Low values mean rapid decline, high ones slow decline. One may read the solubility as the concentration that dissolves in the medium under given conditions. Higher therefore signals a readily soluble substance. The term Cmax denotes the peak of the concentration-time curve.

The values above are taken from ChEMBL document CHEMBL1140573, “Potent achiral agonists of the ghrelin (growth hormone secretagogue) receptor. Part I: Lead identification” (Bioorg Med Chem Lett, 2007).
